Source: US4119717A, “16-S-acyl derivatives of fusidic acid” (Leo Pharmaceutical Products Ltd. A/S Lovens Kemiske Fabrik, priority 1976, dated 1978)
Converted amounts (≈) assume the structure as drawn.

Key:
Test in all cases: Antibacterial activity, concentration required for 50% inhibition
Type in all cases: cell-based
[1] = tested on: Bacteroides fragilis Leo JA 2; conditions: LEOJA2
Text: (§1) Now, however, it has been found, that the compounds of the present invention both in vitro and in vivo show interesting antimicrobial and pharmacokinetic properties. Thereby the compounds of the invention can be used in the treatment of bacterial infections in humans and animals.

[2] = tested on: Staph.aureus Leo CC 178 A; conditions: Staphylococcus aureus, LEOCC178A
Text: as §1

[3] = tested on: Staph.aureus Leo CC 178 B; conditions: Staphylococcus aureus, LEOCC178B
Text: as §1

[4] = tested on: Strep.pyogenes Leo EC; conditions: Streptococcus pyogenes
Text: as §1

[5] = tested on: Strep.sp. Leo EG 2
Text: as §1

Row | SMILES | IC50 [1] [µg/mL] | IC50 [2] [µg/mL] | IC50 [3] [µg/mL] | IC50 [4] [µg/mL] | IC50 [5] [µg/mL]
1 | CC(=O)S[C@H]1C[C@@]2(C)[C@@H](C[C@@H](O)[C@H]3[C@@]4(C)CC[C@@H](O)[C@@H](C)[C@@H]4CC[C@@]32C)/C1=C(\CCC=C(C)C)C(=O)O [Example 1, 16-Deacetoxy-16β-(acetylthio)fusidic acid] | 0.79 (≈ 1.48 µM) | 6.3 (≈ 11.8 µM) | 0.01 (≈ 0.0188 µM) | 0.2 (≈ 0.375 µM) | 0.2 (≈ 0.375 µM)
2 | CC(=O)S[C@H]1C[C@@]2(C)[C@@H](C[C@@H](O)[C@H]3[C@@]4(C)CC[C@@H](O)[C@@H](C)[C@@H]4CC[C@@]32C)/C1=C(\CCCC(C)C)C(=O)O [Example 3, 16-Deacetoxy-16β-acetylthio-24,25-dihydrofusidic acid] | 0.5 (≈ 0.935 µM) | 3.2 (≈ 5.98 µM) | 0.008 (≈ 0.015 µM) | 0.16 (≈ 0.299 µM) | 0.25 (≈ 0.467 µM)
3 | CC(C)CCC/C(C(=O)O)=C1/[C@@H](SC(=O)c2ccccc2)C[C@@]2(C)[C@H]1C[C@@H](O)[C@H]1[C@@]3(C)CC[C@@H](O)[C@@H](C)[C@@H]3CC[C@@]12C [Example 4, 16-Deacetoxy-16β-benzoylthio-24,25-dihydrofusidic acid] | 1.6 (≈ 2.68 µM) | 1.6 (≈ 2.68 µM) | 0.5 (≈ 0.838 µM) | 0.2 (≈ 0.335 µM) | 0.63 (≈ 1.06 µM)
4 | CC(=O)S[C@H]1C[C@@]2(C)[C@@H](CC(=O)[C@H]3[C@@]4(C)CC[C@@H](O)[C@@H](C)[C@@H]4CC[C@@]32C)/C1=C(\CCC=C(C)C)C(=O)O [Example 7, 11-keto-16-deacetoxy-16β-(acetylthio)fusidic acid] | 2 (≈ 3.77 µM) | 20 (≈ 37.7 µM) | 0.02 (≈ 0.0377 µM) | 1 (≈ 1.88 µM) | 2 (≈ 3.77 µM)
5 | CC(=O)S[C@H]1C[C@@]2(C)[C@@H](CC(=O)[C@H]3[C@@]4(C)CC[C@@H](O)[C@@H](C)[C@@H]4CC[C@@]32C)/C1=C(\CCCC(C)C)C(=O)O [Example 8] | 2 (≈ 3.75 µM) | 16 (≈ 30 µM) | 0.02 (≈ 0.0375 µM) | 1 (≈ 1.88 µM) | 2 (≈ 3.75 µM)
6 | CC(=O)S[C@H]1C[C@@]2(C)[C@@H](C[C@@H](O)[C@H]3[C@@]4(C)CC[C@H](Br)[C@@H](C)[C@@H]4CC[C@@]32C)/C1=C(\CCC=C(C)C)C(=O)O [Example 21, 3-Deoxy-3β-bromo-16-deacetoxy-16β-(acetylthio)fusidic acid] | 3.2 (≈ 5.37 µM) | 4 (≈ 6.71 µM) | 0.13 (≈ 0.218 µM) | 0.32 (≈ 0.537 µM) | 1 (≈ 1.68 µM)
7 | CC(=O)S[C@H]1C[C@@]2(C)[C@@H](C[C@@H](O)[C@H]3[C@@]4(C)CC[C@H](Br)[C@@H](C)[C@@H]4CC[C@@]32C)/C1=C(\CCCC(C)C)C(=O)O [Example 22, 3-deoxy-3β-bromo-16-deacetoxy-16β-acetylthio-24,25-dihydrofusidic acid] | 2 (≈ 3.35 µM) | 1.6 (≈ 2.68 µM) | 0.079 (≈ 0.132 µM) | 0.79 (≈ 1.32 µM) | 1.6 (≈ 2.68 µM)
8 | CC(=O)S[C@H]1C[C@@]2(C)[C@@H](C[C@@H](O)[C@H]3[C@@]4(C)CC[C@H](N=[N+]=[N-])[C@@H](C)[C@@H]4CC[C@@]32C)/C1=C(\CCCC(C)C)C(=O)O [Example 28] | 1.6 (≈ 2.86 µM) | 2 (≈ 3.57 µM) | 1.6 (≈ 2.86 µM) | 0.63 (≈ 1.13 µM) | 0.63 (≈ 1.13 µM)
9 | CC(=O)S[C@H]1C[C@@]2(C)[C@@H](C[C@@H](O)[C@H]3[C@@]4(C)CC[C@H](Cl)[C@@H](C)[C@@H]4CC[C@@]32C)/C1=C(\CCC=C(C)C)C(=O)O [Example 29] | 1.3 (≈ 2.36 µM) | 2 (≈ 3.63 µM) | 0.5 (≈ 0.907 µM) | 0.63 (≈ 1.14 µM) | 1.6 (≈ 2.9 µM)
10 | CC(=O)S[C@H]1C[C@@]2(C)[C@@H](C[C@@H](O)[C@H]3[C@@]4(C)CC[C@@H](N=[N+]=[N-])[C@@H](C)[C@@H]4CC[C@@]32C)/C1=C(\CCCC(C)C)C(=O)O [Example 36, 3-Deoxy-3α-azido-16-deacetoxy-16β-acetylthio-24,25-dihydrofusidic acid] | 5 (≈ 8.93 µM) | 5 (≈ 8.93 µM) | 0.063 (≈ 0.113 µM) | 0.4 (≈ 0.715 µM) | 2 (≈ 3.57 µM)
11 | CC(=O)O[C@H]1C[C@@]2(C)[C@@H](C[C@@H](O)[C@H]3[C@@]4(C)CC[C@@H](O)[C@@H](C)[C@@H]4CC[C@@]32C)/C1=C(\CCC=C(C)C)C(=O)O [Fusidic acid] | 1.6 (≈ 3.1 µM) | 16 (≈ 31 µM) | 0.025 (≈ 0.0484 µM) | 0.63 (≈ 1.22 µM) | 1.6 (≈ 3.1 µM)
